According to the supplement of paper PMC10307832:

Experiments:
Assay in all cases: relative viability (nuclei count vs DMSO), 5 days (fraction); higher = more cells survive
[1] = compound: CC1=CC(=NN1)NC2=CC(=NC(=N2)/C=C/C3=CC=CC=C3)N4CCN(CC4)C + CC(=O)c1c(C)c2cnc(Nc3ccc(N4CCNCC4)cn3)nc2n(C2CCCC2)c1=O [Palbociclib] (partner 0.5 µM)
Outline: (§1)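 Relative viability divides the nuclei count in treated wells by that in vehicle wells. Lung cancer cell lines were seeded in 1536-well plates, dosed by pin tool the next day, and fixed and stained after 5 days in one step with final 0.05% Triton X-100, 1% formaldehyde and 1 ug/ml Hoechst. Dosing was a single drug or a fixed anchor-drug dose plus five library-drug doses (not always all listed) in √10 steps, and values are medians of duplicate plates imaged at 4×.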

[2] = compound: CC1=CC(=NN1)NC2=CC(=NC(=N2)/C=C/C3=CC=CC=C3)N4CCN(CC4)C + NC(=O)Nc1cc(-c2cccc(F)c2)sc1C(=O)N[C@H]1CCCNC1 [AZD7762] (partner 0.2 µM)
Outline: as §1

[3] = compound: CC1=CC(=NN1)NC2=CC(=NC(=N2)/C=C/C3=CC=CC=C3)N4CCN(CC4)C + Nc1ncn([C@H]2C[C@H](O)[C@@H](CO)O2)c(=O)n1 [Decitabine] (partner 2 µM)
Outline: as §1

Obatoclax + Decitabine = compound: COC1=CC(c2cc3ccccc3[nH]2)=N/C1=C\c1[nH]c(C)cc1C [Obatoclax] + Nc1ncn([C@H]2C[C@H](O)[C@@H](CO)O2)c(=O)n1 [Decitabine] (partner 2 µM)
Outline: as §1

Row | Cell Line | relative viability ([1]; first compound 0.08 µM) | relative viability ([1]; first compound 0.253 µM) | relative viability ([1]; first compound 0.8 µM) | relative viability ([1]; first compound 2.53 µM) | relative viability ([1]; first compound 8 µM) | relative viability ([2]; first compound 0.08 µM) | relative viability ([2]; first compound 0.253 µM) | relative viability ([2]; first compound 0.8 µM) | relative viability ([2]; first compound 2.53 µM) | relative viability ([2]; first compound 8 µM) | relative viability ([3]; first compound 0.08 µM) | relative viability ([3]; first compound 0.253 µM) | relative viability ([3]; first compound 0.8 µM) | relative viability ([3]; first compound 2.53 µM) | relative viability ([3]; first compound 8 µM) | relative viability (Obatoclax + Decitabine; first compound 0.01 µM) | relative viability (Obatoclax + Decitabine; first compound 0.03162 µM) | relative viability (Obatoclax + Decitabine; first compound 0.1 µM) | relative viability (Obatoclax + Decitabine; first compound 0.3162 µM) | relative viability (Obatoclax + Decitabine; first compound 1 µM)
1 | NCI-H2126 | 0.336 | 0.341 | 0.32 | 0.306 | 0.243 | 0.982 | 1.06 | 1.02 | 0.825 | 0.873 | 0.602 | 0.595 | 0.55 | 0.561 | 0.27 | 0.56 | 0.536 | 0.574 | 0.561 | 0.587
2 | HCC-78 | 0.469 | 0.439 | 0.546 | 0.398 | 0.338 | 0.628 | 0.746 | 0.868 | 0.401 | 0.249 | 0.585 | 0.624 | 0.694 | 0.472 | 0.292 | 0.617 | 0.511 | 0.706 | 0.616 | 0.699
3 | LCLC-97TM1 | 0.246 | 0.201 | 0.201 | 0.168 | 0.0556 | 0.177 | 0.251 | 0.236 | 0.139 | 0.0567 | 0.176 | 0.22 | 0.244 | 0.182 | 0.0703 | 0.216 | 0.197 | 0.196 | 0.214 | 0.192
4 | NCI-H838 | 0.243 | 0.241 | 0.169 | 0.127 | 0.106 | 0.963 | 1.09 | 0.99 | 0.782 | 0.623 | 0.487 | 0.416 | 0.384 | 0.208 | 0.141 | 0.471 | 0.412 | 0.511 | 0.338 | 0.32
5 | NCI-H2347 | 0.426 | 0.412 | 0.411 | 0.435 | 0.362 | 0.544 | 0.788 | 0.911 | 0.484 | 0.32 | 0.606 | 0.636 | 0.561 | 0.549 | 0.394 | 0.607 | 0.561 | 0.579 | 0.563 | 0.653
6 | NCI-H441 | 0.169 | 0.214 | 0.203 | 0.115 | 0.103 | 1.17 | 1.06 | 1.1 | 0.728 | 0.152 | 0.233 | 0.222 | 0.223 | 0.172 | 0.12 | 0.213 | 0.272 | 0.287 | 0.2 | 0.194
7 | NCI-H358 | 0.12 | 0.144 | 0.133 | 0.0673 | 0.072 | 0.574 | 0.528 | 0.424 | 0.195 | 0.154 | 0.227 | 0.188 | 0.184 | 0.0835 | 0.0684 | 0.213 | 0.187 | 0.232 | 0.157 | 0.137
8 | NCI-H1648 | 0.262 | 0.25 | 0.238 | 0.256 | 0.271 | 0.578 | 0.691 | 0.663 | 0.626 | 0.513 | 0.417 | 0.552 | 0.606 | 0.294 | 0.463 | 0.594 | 0.421 | 0.829 | 0.447 | 0.39
9 | NCI-H2405 | 0.553 | 0.555 | 0.521 | 0.411 | 0.174 | 0.742 | 0.766 | 0.768 | 0.357 | 0.118 | 0.758 | 0.618 | 0.687 | 0.615 | 0.171 | 0.769 | 0.717 |  | 0.762 | 0.63
10 | HCC-15 | 0.743 | 0.771 | 0.716 | 0.347 | 0.114 | 1.1 | 1.46 | 1.25 | 0.875 | 0.34 | 0.592 | 0.654 | 0.655 | 0.108 | 0.0983 | 0.678 | 0.568 | 0.509 | 0.615 | 0.434
